# Source: ChEMBL document CHEMBL4000189, “Novel reversible methionine aminopeptidase-2 (MetAP-2) inhibitors based on purine and related bicyclic templates” (Bioorg Med Chem Lett, 2017)
# Columns and labels:
# [1] = Thermodynamic solubility of the compound; type: physicochemical; details: read-out: Therm_solubility
# [2] = Permeability in human Caco2 cells; type: ADME, cell-based; details: Caco-2, read-out: permeability
# [3] = biological target: Methionine aminopeptidase 2 (Homo sapiens, UniProt P50579); assay: Inhibition of recombinant human N-terminal His tagged MetAP-2 using tripeptide Met-Ala-Ser as substrate preincubated for 15 mins followed by substrate addition measured after 45 mins by L-amino acid oxidase enzyme coupled assay
# Methionine aminopeptidase 2, sequence (P50579 whole entry): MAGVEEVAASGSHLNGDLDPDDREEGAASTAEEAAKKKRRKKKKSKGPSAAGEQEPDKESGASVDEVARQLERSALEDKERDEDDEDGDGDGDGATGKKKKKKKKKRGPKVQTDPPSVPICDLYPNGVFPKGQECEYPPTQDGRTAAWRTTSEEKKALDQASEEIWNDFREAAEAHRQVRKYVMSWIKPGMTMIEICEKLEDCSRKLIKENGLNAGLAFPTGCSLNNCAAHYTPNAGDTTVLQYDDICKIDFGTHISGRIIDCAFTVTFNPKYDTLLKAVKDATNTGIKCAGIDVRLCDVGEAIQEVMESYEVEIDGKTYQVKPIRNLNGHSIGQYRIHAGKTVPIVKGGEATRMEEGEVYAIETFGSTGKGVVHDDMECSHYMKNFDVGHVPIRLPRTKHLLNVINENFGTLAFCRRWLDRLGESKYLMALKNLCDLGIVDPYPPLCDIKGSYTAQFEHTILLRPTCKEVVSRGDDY
solubility thermodynamic [1],Papp [2],IC50 [3],Compound
171 µg/mL,21 ×10⁻⁶ cm/s,,c1ccc2c(OC[C@H]3CCCN3c3ccnc4ncnn34)cncc2c1
,,> 50 µM,Fc1cccc(OC[C@H]2CCCN2c2ncnc3[nH]ccc23)c1
,,> 50 µM,Clc1ccccc1OC[C@H]1CCCN1c1ncnc2ncccc12
